# Legend:
# [1] = tested on: arachidonic acid-induced ear swelling; assay: Topical arachidonic acid-induced ear swelling model in mice (topical application); assay type: in vivo, mice (male ICR); settings: 20 μL applied 30 min before and 15 min after arachidonic acid, measured at 90 minutes
# Protocol: The test compounds, indomethacin (positive control), and vehicle were evaluated for anti-inflammatory activity in a topical arachidonic acid-induced ear swelling model in mice. Male ICR mice weighing 22±2 g were used and randomly divided. Arachidonic Acid (0.5 mg in 20 μl of acetone:ethanol/1:1) was applied topically to the anterior and posterior surfaces of the right ear of each mice. Test compounds and vehicle, as listed in Table 1 were similarly applied 30 minutes before and 15 minutes after arachidonic acid application. The thickness of the right ear and the left ear was measured and the difference calculated as an indication of the inflammation in the right ear. Ear swelling was measured by a Dyer model micrometer gauge at 60 and 90 minutes after arachidonic acid application as an index of inflammation. Percent inhibition was calculated according to the formula: Ic−It/Ic×100, where Ic and It refers to increase of ear thickness (mm) in control and treated mice, respectively. ANOVA and Dunnett's test were employed to ascertain significant difference between vehicle control and treated groups. Significance is set at P<0.05 level. The test compounds, indomethacin (positive control), and vehicle were evaluated for anti-inflammatory activity in a topical arachidonic acid-induced ear swelling model in mice. Male ICR mice weighing 22±2 g were used and randomly divided; the test compound and vehicle control had 10 mice, and indomethacin had 5 mice. Arachidonic Acid (0.5 mg in 20 μl of acetone:ethanol/1:1) was applied topically to the anterior and posterior surfaces of the right ear of each mouse. Test substances and vehicle, as listed in Table 4 were similarly applied 30 min before and 15 min after arachidonic acid application. The thickness of the right ear and the left ear was measured and the difference calculated as an indication of the inflammation in the right ear. Ear swelling was measured by a Dyer model micrometer gauge at 60 and 90 minutes after arachidonic acid application as an index of inflammation. Percent inhibition was calculated according to the formula: Ic−It/Ic×100, where Ic and It refers to increase of ear thickness (mm) in control and treated mice, respectively. ANOVA and Dunnett's test were employed to ascertain significant difference between vehicle control and treated groups. Significance is set at P<0.05 level.
# [2] = tested on: arachidonic acid induced ear swelling; assay: Arachidonic acid induced ear swelling model in mice (oral administration); assay type: in vivo, mice (male ICR derived); settings: for % Inhibition (ear swelling): Table 8, oral gavage, test compound 30 mg/kg 1 hour before, dexamethasone 0.3 mg/kg 3 hour before arachidonic acid, measured at 90 minutes
# Protocol: 3-[(4-Methylphenyl)sulfonyl]propionitrile was suspended in vehicle (1% Tween 80 in water) to 3 mg/mL. The test compound, dexamethasone (positive control in vehicle), and vehicle were orally administered to mice and evaluated for anti-inflammatory activity in the topical arachidonic acid induced ear swelling model in mice.
# Male ICR derived mice weighing 22±2 g were used in this experiment. 10 mice were used for each group (active compound, positive control, and vehicle). All animals were maintained in a controlled temperature (22-24° C.) and humidity (60%-70%) environment with 12-hour light/dark cycles for at least one week prior to use.
# Arachidonic acid (0.5 mg in 20 μL acetone) was applied topically onto the anterior and posterior surfaces of the right ear of test animals to induce inflammation. Active compound in vehicle (10 mL/kg) and vehicle (10 mL/kg, […]) was orally administered by gavage 1 hour before arachidonic acid, whereas dexamethasone was orally administered by gavage 3 hour before arachidonic acid challenge. At 60 minutes and 90 minutes after arachidonic acid induction of ear edema, the thickness of the right ear and the left ear was measured and the difference calculated as an indication of the inflammation in the right ear.
# [3] = Table 6, test compounds 375 mM, indomethacin 14 mM (0.5% w/v)
# [4] = Table 7, test compounds 375 mM, indomethacin 14 mM
Structure (SMILES),"% Inhibition (ear swelling) [1, 3]","% Inhibition (ear swelling) [1, 4]",other results
N#CCCS(=O)(=O)c1ccc(Cl)cc1 [3-[(4-chlorophenyl)sulfonyl]propionitrile],20%,–,–
N#CCCS(=O)(=O)c1ccc2ccccc2c1 [3-(naphthalene-2-sulfonyl)propionitrile],25%,–,–
"COc1ccc2c(c1)c(CC(=O)O)c(C)n2C(=O)c1ccc(Cl)cc1 [Indomethacin, reference compound]",57%,58%,–
COc1ccc(S(=O)(=O)CCC#N)cc1 [3-(4-methoxyphenyl)sulfonylpropionitrile],–,23%,–
"N#CCCS(=O)(=O)c1ccc(Cl)c(Cl)c1 [3-(3,4-dichlorophenyl)sulfonylpropionitrile]",–,28%,melting point: 137.7 to 140.2 °C
N#CCCS(=O)(=O)c1ccccc1 [3-(phenylsulfonyl)propionitrile],36%,–,–
"C[C@@H]1C[C@H]2[C@@H]3CCC4=CC(=O)C=C[C@]4(C)[C@@]3(F)[C@@H](O)C[C@]2(C)[C@@]1(O)C(=O)CO [Dexamethasone, reference compound]",–,–,% Inhibition (ear swelling) [2]: 36%
Cc1ccc(S(=O)(=O)CCC#N)cc1 [3-[(4-methylphenyl)sulfonyl]propionitrile],44%,–,"% Inhibition (ear swelling) [2]: 16%; Inhibition in arachidonic acid induced ear swelling (in words) ([2]; oral administration, at 90 minutes): significant inhibition"

# From patent US9889111B2, “Pharmaceutical composition comprising omega-(arylsulfonyl)alkylnitrile” (OLATEC THERAPEUTICS LLC, priority 2012, dated 2018)
